Calls of active or inactive are those of the source. The calls are words filed in the database; no cut-off is given here.

For experiment [1], the system named is Mus musculus. In words: Immunosuppressive effect in thioglycolate-induced hyper-inflammatory C57BL/6 wild type mouse model assessed as effect on neutrophil level in […] peritoneal cavity at 2.5 micromol/kg, iv measured after 2 hrs by flow cytometry based in vivo cell recruitment assay. Format: functional, organism-based. To be noted: dose 2.5 µmol/kg. A general note: Flow cytometry measures light scatter and fluorescence of single cells or particles in a stream.

For another experiment, the target named is T1, P-selectin (Homo sapiens, UniProt P16109).
T1 sequence (P16109 whole entry): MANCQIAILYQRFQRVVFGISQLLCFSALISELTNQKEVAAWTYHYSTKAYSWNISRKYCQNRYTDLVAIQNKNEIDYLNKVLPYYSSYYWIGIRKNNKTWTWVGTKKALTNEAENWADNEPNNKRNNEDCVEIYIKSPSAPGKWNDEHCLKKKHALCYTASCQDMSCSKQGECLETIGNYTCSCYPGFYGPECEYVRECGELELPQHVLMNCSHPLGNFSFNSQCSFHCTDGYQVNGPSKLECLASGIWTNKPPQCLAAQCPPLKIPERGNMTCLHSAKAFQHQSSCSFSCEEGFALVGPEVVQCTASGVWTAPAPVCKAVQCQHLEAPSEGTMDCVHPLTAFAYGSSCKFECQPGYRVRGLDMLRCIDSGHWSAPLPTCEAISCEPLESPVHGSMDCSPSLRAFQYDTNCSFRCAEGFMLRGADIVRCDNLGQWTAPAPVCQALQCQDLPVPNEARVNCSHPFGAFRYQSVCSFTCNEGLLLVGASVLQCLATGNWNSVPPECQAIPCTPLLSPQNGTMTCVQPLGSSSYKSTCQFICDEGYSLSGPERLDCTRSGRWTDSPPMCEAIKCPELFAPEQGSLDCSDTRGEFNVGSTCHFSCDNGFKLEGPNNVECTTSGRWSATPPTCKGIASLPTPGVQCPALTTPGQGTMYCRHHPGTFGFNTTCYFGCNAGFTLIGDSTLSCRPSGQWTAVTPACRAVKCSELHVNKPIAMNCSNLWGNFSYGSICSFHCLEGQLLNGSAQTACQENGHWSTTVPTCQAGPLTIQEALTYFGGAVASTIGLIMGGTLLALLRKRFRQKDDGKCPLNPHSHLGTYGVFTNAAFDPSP
The experiment is described as follows: Binding affinity to recombinant human P-selectin assessed as dissociation constant by surface plasmon resonance (SPR) analysis. For orientation: SPR reads the build-up and loss of mass on a sensor chip optically.

Another experiment concerns the target T2, E-selectin (Homo sapiens, UniProt P16581).
T2 sequence (P16581 whole entry): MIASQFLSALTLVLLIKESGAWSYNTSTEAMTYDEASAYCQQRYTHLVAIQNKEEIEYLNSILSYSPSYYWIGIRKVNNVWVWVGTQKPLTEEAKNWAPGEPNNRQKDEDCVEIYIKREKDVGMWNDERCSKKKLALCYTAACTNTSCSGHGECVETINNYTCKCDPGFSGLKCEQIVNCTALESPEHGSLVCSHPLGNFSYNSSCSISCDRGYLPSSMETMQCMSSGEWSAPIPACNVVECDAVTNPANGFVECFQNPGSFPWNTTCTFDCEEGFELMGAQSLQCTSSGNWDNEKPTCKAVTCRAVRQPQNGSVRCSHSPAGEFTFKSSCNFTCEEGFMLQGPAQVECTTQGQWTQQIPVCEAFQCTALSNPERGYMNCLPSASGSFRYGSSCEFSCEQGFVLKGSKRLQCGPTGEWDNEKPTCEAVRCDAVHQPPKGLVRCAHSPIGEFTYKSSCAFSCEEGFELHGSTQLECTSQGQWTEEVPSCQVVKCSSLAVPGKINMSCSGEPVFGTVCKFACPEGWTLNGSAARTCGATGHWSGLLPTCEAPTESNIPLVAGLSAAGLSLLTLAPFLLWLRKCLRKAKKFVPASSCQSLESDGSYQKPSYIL
The experiment is described as follows: Binding affinity to recombinant human E-selectin assessed as dissociation constant by surface plasmon resonance (SPR) analysis.

The subject of experiment [2] is Mus musculus. The experiment is described as follows: Immunosuppressive activity in thioglycolate induced hyper-inflammation in C57BL/6 wild type mouse model assessed as reduction in macrophages/monocytes levels at 2 micromol/kg, iv pre-administered for 10 min followed by thioglycolate administration for 10 min and further incubated with compound for 1 hr 40 min by flow cytometry in vivo cell recruitment assay. To be noted: dose 2.0 µmol/kg, time 2.0 hrs. In kind it is functional, organism-based.

In experiment [3] the test system is Mus musculus. The experiment is described as follows: Immunosuppressive effect in thioglycolate-induced hyper-inflammatory C57BL/6 wild type mouse model assessed as effect on macrophage/monocytes level in […] peritoneal cavity at 2.5 micromol/kg, iv pre-administered 10 min followed by thioglycolate administration measured after 10 min by flow cytometry based in vivo cell recruitment assay. Format: functional, organism-based. Conditions: dose 2.5 µmol/kg, time 20.0 min.

Experiment [4] deals with Mus musculus. The experiment is described as follows: Immunosuppressive effect in thioglycolate induced hyper-inflammatory C57BL/6 wild type mouse model assessed as reduction in CD11b+ level in […] peritoneal cavity at 2.5 micromol/kg,iv pre-administered for 10 min followed by thioglycolate administration for 10 min and further incubated with compound for 1 hr 40 min by flow cytometry in vivo cell recruitment assay. In kind it is functional, organism-based. Conditions: dose 2.5 µmol/kg, time 2.0 hrs.

For experiment [5], the system named is Mus musculus. The experiment is described as follows: Immunosuppressive effect in thioglycolate-induced hyper-inflammatory C57BL/6 wild type mouse model assessed as effect on PSGL-1+ level in […] peritoneal cavity at 2.5 micromol/kg,iv pre-administered 10 min followed by thioglycolate administration measured after 10 min by flow cytometry based in vivo cell recruitment assay. Format: functional, organism-based. To be noted: dose 2.5 µmol/kg, time 20.0 min.

Experiment [6] deals with Mus musculus. The experiment is described as follows: Immunosuppressive effect in thioglycolate-induced hyper-inflammatory C57BL/6 wild type mouse model assessed as reduction in PSGL-1+ level in […] peritoneal cavity at 2.5 micromol/kg, iv administered after 24 hrs of thioglycolate injection in peritoneal cavity followed by after 2 hrs treated at 2.5 micromol/kg, ip and followed by after 6 hrs treated at 2.5 micromol/kg, ip and followed by after 15 hrs treated at 2.5 micromol/kg, ip and measured after 3 hrs by flow cytometry based in vivo cell recruitment assay. To be noted: time 26.0 hrs. Format: functional, organism-based.

Experiment [7] deals with Mus musculus. In words: Immunosuppressive effect in thioglycolate-induced hyper-inflammatory C57BL/6 wild type mouse model assessed as effect on CD11b+ level in […] peritoneal cavity at 2.5 micromol/kg, iv pre-administered 10 min followed by thioglycolate administration measured after 10 min by flow cytometry based in vivo cell recruitment assay. To be noted: dose 2.5 µmol/kg, time 20.0 min. In kind it is functional, organism-based.

For experiment [8], the system named is Mus musculus. In words: Immunosuppressive effect in thioglycolate-induced hyper-inflammatory C57BL/6 wild type mouse model assessed as reduction in neutrophil level in […] peritoneal cavity at 2.5 micromol/kg, iv pre-administered for 10 min followed by thioglycolate administration for 10 min and further incubated with compound for 1 hr 40 min by flow cytometry based in vivo cell recruitment assay. In kind it is functional, organism-based. Conditions: dose 2.5 µmol/kg, time 2.0 hrs.

Experiment [9] concerns Mus musculus. The experiment is described as follows: Immunosuppressive effect in thioglycolate-induced hyper-inflammatory C57BL/6 wild type mouse model assessed as reduction in CD11b+ level in skin of peritoneal cavity at 2.5 micromol/kg, iv administered after 24 hrs of thioglycolate injection in peritoneal cavity followed by after 2 hrs treated at 2.5 micromol/kg, ip and followed by after 6 hrs treated at 2.5 micromol/kg, ip and followed by after 15 hrs treated at 2.5 micromol/kg, ip and measured after 3 hrs by flow cytometry based in vivo cell recruitment assay. In kind it is functional, organism-based. Conditions: time 26.0 hrs.

The subject of experiment [10] is Mus musculus. In words: Immunosuppressive effect in thioglycolate-induced hyper-inflammatory C57BL/6 wild type mouse model assessed as reduction in macrophage/monocyte level in […] peritoneal cavity at 2.5 micromol/kg, iv administered after 24 hrs of thioglycolate injection in peritoneal cavity followed by after 2 hrs treated at 2.5 micromol/kg, ip and followed by after 6 hrs treated at 2.5 micromol/kg, ip and followed by after 15 hrs treated at 2.5 micromol/kg, ip and measured after 3 hrs by flow cytometry based in vivo cell recruitment assay. Format: functional, organism-based. To be noted: time 26.0 hrs.

Experiment [11] concerns Mus musculus. The experiment is described as follows: Immunosuppressive activity in thioglycolate induced hyper-inflammatory C57BL/6 wild type mouse model assessed as effect on neutrophil levels at 2 micromol/kg, iv pre-administered 10 min followed by thioglycolate administration measured after 10 min by flow cytometry analysis. Format: functional, organism-based. Conditions: dose 2.0 µmol/kg, time 20.0 min.

Experiment [12] deals with Mus musculus. In words: Immunosuppressive effect in thioglycolate-induced hyper-inflammatory C57BL/6 wild type mouse model assessed as reduction in neutrophil level in skin of peritoneal cavity at 2.5 micromol/kg, iv administered after 24 hrs of thioglycolate injection in peritoneal cavity followed by after 2 hrs treated at 2.5 micromol/kg, ip and followed by after 6 hrs treated at 2.5 micromol/kg, ip and followed by after 15 hrs treated at 2.5 micromol/kg, ip and measured after 3 hrs by flow cytometry based in vivo cell recruitment assay. Format: functional, organism-based. Conditions: time 26.0 hrs.

Experiment [13] concerns Mus musculus. In words: Immunosuppressive effect in thioglycolate induced hyper-inflammatory C57BL/6 wild type mouse model assessed as reduction in PSGL-1 positive cell level in skin of peritoneal cavity at 2.5 micromol/kg, iv pre-administered for 10 min followed by thioglycolate administration for 10 min and further incubated with compound for 1 hr 40 min by flow cytometry based in vivo cell recruitment assay. Conditions: dose 2.5 µmol/kg, time 2.0 hrs. Format: functional, organism-based.

For the molecule `CC(=O)N[C@@H]1[C@@H](O[C@@H]2O[C@@H](C)[C@@H](O)[C@@H](O)[C@@H]2O)[C@H](O[C@@H]2O[C@H](CO)[C@H](O)[C@H](O[C@]3(C(=O)O)C[C@H](O)[C@@H](NC(C)=O)[C@H]([C@H](O)[C@H](O)CO)O3)[C@H]2O)[C@@H](CO)O[C@H]1O`, in the experiment on Mus musculus [1], the result was inactive.

Consider `CC(C)OC(=O)[C@H](O[C@@H]1O[C@@H](C)[C@@H](O)[C@@H](O)[C@@H]1O)[C@@H](O[C@@H]1O[C@H](COC(=O)c2ccccc2)[C@@]2(O)CC[C@H](C(=O)O)O[C@H]2[C@H]1OC(=O)c1ccccc1)C(=O)OC(C)C`, for which, in the experiment on Mus musculus [1], the outcome was inactive.

For the molecule `CC(C)OC(=O)[C@H](O[C@@H]1O[C@@H](C)[C@@H](O)[C@@H](O)[C@@H]1O)[C@@H](O[C@@H]1O[C@H](CO)[C@H](O)[C@H](O[C@H](Cc2ccccc2)C(=O)O)[C@H]1OC(=O)c1ccccc1)C(=O)OC(C)C`, the Kd on P-selectin and on E-selectin was 1 µM in each case.

In the case of `CC(C)OC(=O)[C@H](O[C@@H]1O[C@@H](C)[C@@H](O)[C@@H](O)[C@@H]1O)[C@@H](O[C@@H]1O[C@H](COC(=O)c2ccccc2)[C@@]2(O)CC[C@@H](C(=O)O)O[C@H]2[C@H]1OC(=O)c1ccccc1)C(=O)OC(C)C`, the result in the experiment with Mus musculus [2], in the experiment with Mus musculus [4], in the experiment on Mus musculus [6], in the experiment with Mus musculus [8], in the experiment with Mus musculus [9] and with Mus musculus [10] was Active. In addition, the result with Mus musculus [12] was Active. Further, the outcome in the experiment with Mus musculus [3], in the experiment on Mus musculus [5], in the experiment on Mus musculus [7] and in the experiment on Mus musculus [11] was inactive. Also, the Activity result in the experiment with Mus musculus [1] was “Active; Lowering Neutrophil Levels”.

On to `CC(C)OC(=O)[C@H](O[C@@H]1O[C@@H](C)[C@@H](O)[C@@H](O)[C@@H]1O)[C@@H](O[C@@H]1O[C@H](CO)[C@@]2(O)CC[C@@H](c3nnn[nH]3)O[C@@H]2[C@H]1OC(=O)c1ccccc1)C(=O)OC(C)C`, for which the result with Mus musculus [2], in the experiment with Mus musculus [4], in the experiment with Mus musculus [6], in the experiment with Mus musculus [8], with Mus musculus [9] and in the experiment with Mus musculus [10] was Active. In the experiment with Mus musculus [12], the outcome was Active. Besides, the result in the experiment on Mus musculus [3], in the experiment on Mus musculus [5], in the experiment with Mus musculus [7] and with Mus musculus [11] was inactive.

In the case of `CC(C)OC(=O)[C@H](O[C@@H]1O[C@@H](C)[C@@H](O)[C@@H](O)[C@@H]1O)[C@@H](O[C@@H]1O[C@H](COC(=O)c2ccccc2)[C@@]2(O)CC[C@@H](c3nnn[nH]3)O[C@@H]2[C@H]1OC(=O)c1ccccc1)C(=O)OC(C)C`, the result in the experiment with Mus musculus [2], in the experiment on Mus musculus [4], with Mus musculus [6], in the experiment on Mus musculus [13], in the experiment with Mus musculus [8] and with Mus musculus [9] was Active. Further, the outcome with Mus musculus [10] and in the experiment with Mus musculus [12] was Active. The result in the experiment on Mus musculus [3], in the experiment with Mus musculus [5], in the experiment with Mus musculus [7] and with Mus musculus [11] was inactive.

Broadly, the Kd is the concentration at which binding is half-saturated.
